In patent publication US6492124B1, “Trance activated signal transduction pathways in osteoclasts” (The Rockefeller University, priority 1999, dated 2002):

Key:
JNK = JNK activation measured by its phosphorylation in osteoclasts and dendritic cells; format: cell-based, mouse; details: TRANCE, data not shown
Procedure: (§1) Cell stimulation, cell transfection and in vitro assays. In vitro differentiated mature dendritic cells, macrophages and osteoclasts were washed to remove exogenous growth factors, cultured in media with low serum (0.5% FCS, 6 hours), then stimulated by adding various cytokines in the presence or absence of inhibitors for various times as indicated. After stimulation, the cells were washed in ice-cold PBS, and subjected to Western blot analysis or immunoprecipitation as described below.
For Western blotting, whole-cell extracts (20 μg of total protein), immunoprecipitates or kinase reactions were resolved on SDS-PAGE, electro-blotted to PVDF membranes (Immobilon-P, Millipore) according to standard methods (Maniatis, et al., Molecular Cloning: A Laboratory Manual (Cold Spring Harbor Laboratory, New York) 1989), probed with antibodies according to the manufacturer's protocol, and visualized using an immunodetection system. Stripping was performed by incubating the blots in stripping buffer (62.5 mM Tris pH 6.8, 2% SDS, 100 mM β-mercaptoethanol) for 30 min at 55° C.

[1] = molecular target: T1, TRANCE-R signaling complex (Mus musculus, UniProt O35305); experiment: TRANCE-R immunoprecipitation from dendritic cells: co-precipitated TRAF6/c-Src and SAM68 kinase assay; format: cell-based
T1 construct: the endogenous TRANCE-R was immunoprecipitated from the extracts (2 mg of total protein); endogenous in cells; host or cells: mature bone marrow-derived dendritic cells of C57BL/6 mice
Procedure: FIG. 5. Ligand dependant recruitment of endogenous TRAF6 and c-Src proteins to the TRANCE-R signaling complex. (A) Dendritic cells were stimulated with TRANCE (1 μg/ml) for the indicated times, lysed, and c-Src was immunoprecipitated from the extracts (400 μg total protein), using an anti-c-Src-specific monoclonal antibody (327). PTK activity of the c-Src immunoprecipitates was measured by in vitro kinase assays using SAM68 as a PTK substrate. The degree of SAM68 phosphorylation (SAM68^P) was determined by Western blot analysis using a phospho-tyrosine specific antibody (4G10) followed by densitometry. (B) Dendritic cells (3×10^7) were treated with TRANCE (1 μg/ml) for 5 minutes or left untreated (0 minutes). […] The degree of SAM68 phosphorylation (SAM68^P) was determined as in (A). The presence of endogenous TRAF6 or c-Src in the remaining α-TRANCE-R immunoprecipitates (IP) were analyzed by Western blotting using TRAF6 (H-274) and c-Src specific antibodies (N16), respectively, as indicated. […]
For the in vitro kinase-assays in FIGS. 3A, 4D, and 5B the beads were washed twice with extraction buffer and three times with kinase buffer (30 mM HEPES.NaOH (pH 7.4), 20 mM MgCl2, 2 mM MnCl2, 1 mM dithiothreitol). […] Phosphorylation of SAM68 was detected by autoradiography or by probing Western blots with 4G10. […]

p44/42 ERK = p44/42 ERK phosphorylation in osteoclasts and dendritic cells (Western blot); format: cell-based, mouse; details: after 20 min of TRANCE stimulation
Procedure: FIG. 1. TRANCE activates p44/42 ERK, NF-κB and PKB in osteoclasts and dendritic cells. (A) Mature bone marrow-derived osteoclasts were stimulated for the indicated times with recombinant hCD8-TRANCE (TRANCE; 1 μg/ml). Levels of phosphorylated forms of p44/p42 ERK (p44 ERK^P and p42 ERK^P), IκBα (IκB-α^P) and PKB (PKB^P) in whole cell extracts were determined using phospho-peptide-specific antibodies as indicated in the figure. The membranes were stripped and incubated with antibodies against the p44/p42 ERK, IκB-α, and PKB as indicated to confirm that similar amounts of whole cell extracts were analyzed. Note the decrease of IκB-α after 10 min of treatment due to its degradation. (B) as in (A) except the use of mature bone marrow-derived dendritic cells instead of osteoclasts.
as §1, with “below. […]” for “below.”

Q: Which results are given for “TNF-related activation-induced cytokine [TRANCE]”?
A: JNK activation as measured by its phosphorylation (JNK): not detected; TRAF6 and c-Src in the TRANCE-R complex ([1]; TRANCE 1 μg/ml 5 minutes vs untreated): readily detected; PTK activity of the receptor complex towards SAM68 ([1]; TRANCE 1 μg/ml 5 minutes, in vitro kinase assay): acquired PTK activity; ERK phosphorylation (p44/42 ERK): transiently induced
